Measurements: patent US12534501B2, “Targeting deregulated Wnt signaling in cancer using stabilized alpha-helices of BCL-9” (Dana-Farber Cancer Institute, Inc., priority 2011, dated 2026)
Numbered stars: 1 amine (or outer) side, 2 acyl side, 3 side chain; on linkers, the order of the positions; unused ones are H or OH. Bridge positions count the residues as written; N and C are the ends. Square brackets hold non-standard residues; d marks the D form. Peptide text beside a SMILES is read from it. ξ: configuration not given here. ξαMeNle(6-ylidene) = CC(CCCC=[*:3])(N[*:1])C(=O)[*:2]; Nle = CCCC[C@H](N)C(=O)O

Columns and labels:
[1] = tested on: GFP-positive Colo320 cells in NOD/SCID mice; assay: Colo320 intraperitoneal xenograft model; type: in vivo
Description: To explore the therapeutic potential of targeting the BCL9/β-catenin interaction, the capacity of SAH-BCL9B to suppress tumor growth was examined in vivo. GFP-expressing Colo320 cells (1×10^6) were injected into the peritoneum of sublethally irradiated NOD/SCID mice. Two days after cellular injection, mouse cohorts (n=6) were treated with vehicle (2.5% DMSO in D5W), SAH-BCL9B, or SAH-BCL9B(R359E) peptides (20 mg/kg) for a total of 6 doses administered intraperitoneally every other day. On day 40 of the experiment, mice were sacrificed and evaluated for tumor burden and metastasis by whole body imaging and histologic examination of harvested GFP-positive tissues. […] Importantly, no histologic changes in normal murine tissues were observed across the treatment groups upon necropsy.
GFP-positive Colo320 cells were generated as previously reported (Mani, M. et al. Cancer Res 69, 7577-86 (2009)). Cells were pelleted, resuspended in sterile 1x PBS and injected intraperitoneally (1×10^6 cells/mouse) into 5-week-old sublethally irradiated NOD.CB17-PrkdcSCID/J mice (Jackson Laboratory) (n=6 per cohort). Two days after cellular inoculation, mice were treated by intraperitoneal injection with vehicle (2.5% DMSO in D5W) or SAH-BCL9 peptides (20 mg/kg) on alternate days for a total of 6 doses. Forty days after tumor cell injection, the mice were euthanized and GFP-positive tumor visualized using an ImageQuant LAS-4000 (GE Healthcare). Complete necropsies were performed for each experimental animal and livers were sectioned in their entirety at 5 mm intervals for quantitation of tumor metastases. Tissues were subjected to H&E staining and immunohistochemical analysis using anti-CD34 and anti-CD44 antibodies.

[2] = tested on: Wnt target genes in DLD1 colon cancer cell line; assay: Affymetrix gene expression profiling / GSEA and qRT-PCR validation; type: cell-based
Description: RNA from SAH-BCL9B and vehicle (0.1% DMSO)-treated cells were run on an Affymetrix U133A 2.0 array chip as described (Mollering et al, Nature 462, 182-8 (2009). Statistical analyses were performed in R (http://www.r-project.org). The array data were normalized with rma method (Bolstad, B. M., et al. Bioinformatics 19, 185-93 (2003)) as implemented in the Affy package (http://www.bioconductor.org/packages/2.6/bioc/html/affy.html) and differential expression calculated with empirical Bayes shrinkage of the standard errors toward a common value with LIMMA (http://www.bioconductor.org/packages/2.6/bioc/html/limma.html) (McCarthy, D. J. & Smyth, G. K. Bioinformatics 25, 765-71 (2009); Smyth, G. K. Stat Appl Genet Mol Biol 3, Article3 (2004)). Gene set enrichment analysis was performed using GSEA software (version 2.06) and mSigDB (version 2.5) (Subramanian, A. et al. Proc Natl Acad Sci USA 102, 15545-50 (2005)).
To further investigate the specificity of SAH-BCL9B in blocking Wnt transcriptional activity, comparative genome-wide expression analyses of Wnt target genes in the DLD1 colon cancer cell line, for which a Wnt transcription pathway signature has been described (L. G. Van der Flier et al., Gastroenterology 132, 628 (2007)), was performed. RNA from triplicate SAH-BCL9B- and vehicle-treated DLD1 samples (10 μM each for 12 hours) was isolated for gene expression profiling analyses. Affymetrix Human U133 Plus 2.0 arrays were processed using the function of the affy Bioconductor package (URL http://www.R-project.org.). Gene sets were compiled from Van der Flier et al. and gene set enrichment and statistical analyses performed using GSEA software (http://www.broad.mit.edu/GSEA) and a two-tailed t-test, respectively. Microarray data has been deposited in the Gene Expression Omnibus (http://www.ncbi.nlm.nih.gov/geo) and comply with MIAME annotation standards. […]

[3] = tested on: multiple myeloma primary tumors (MMPT); assay: Cell proliferation, [3H]thymidine uptake; type: cell-based, human; conditions: primary MM cells; 5 μM
From the text: (§1) Bone marrow specimens were obtained from patients with MM in accordance with Dana-Farber Cancer Institute Review Board approval and informed consent performed in compliance with the Declaration of Helsinki. Primary CD138+ plasma cells were purified using magnetic beads as described (Sukhdeo, K. et al. Proc Natl Acad Sci USA 104, 7516-21 (2007)). CRC primary tumor samples were obtained from the Brigham and Women's Hospital in accordance with the policies of their Institutional Review Board. To generate sufficient CRC primary tumor cells for experimentation, the primary tumors were first expanded subcutaneously in NOD/SCID mice (Jackson Laboratory). After the tumors reached 2 cm in diameter, mice were sacrificed according to institutional guidelines and subcutaneous tumor xenografts were minced with a scalpel and digested by incubation with collagenase IV (Worthington Biomedical Corporation) and 0.01% DNase I (Sigma-Aldrich) at 37° C. for 30 min, followed by additional mechanical disaggregation using a Stomacher device (Seward Laboratory Systems Inc.). […]
(§2) Cell proliferation assays were performed as described (Sukhdeo, K. et al. Proc Natl Acad Sci USA 104, 7516-21 (2007)). Cell viability was measured using the CellTiter-Glo assay (Promega) according to the manufacturer's instructions. Apoptosis was evaluated by activated caspase-3 and PARP western blotting. […]

[4] = tested on: colorectal primary tumors (CCPT); assay: Cell proliferation, [3H]thymidine uptake; type: cell-based, human; conditions: primary CRC cells; 5 μM, 24 h
From the text: as §1, §2

[5] = 20 mg/kg i.p. every other day, 6 doses, day 40

## CCCC[C@H](NC(=O)[C@H](CCCNC(=N)N)NC(=O)[C@H](CCC(N)=O)NC(=O)[C@@H](NC(=O)C1(C)CCCC=CCCCC(C)(NC(=O)[C@H](CC(C)C)NC(=O)[C@H](CO)NC(=O)[C@H](CCCNC(=N)N)NC(=O)[C@H](CCC(=O)O)NC(=O)[C@H](CCCNC(=N)N)NC(=O)[C@H](Cc2c[nH]cn2)NC(=O)[C@H](CCC(=O)O)NC(=O)[C@H](CC(C)C)NC(=O)[C@H](CCC(N)=O)NC(=O)[C@H](CCC(=O)O)NC(=O)[C@H](CCC(N)=O)NC(=O)[C@H](CO)NC(=O)[C@H](CC(C)C)NC(C)=O)C(=O)N[C@@H]([C@@H](C)O)C(=O)N[C@@H](CC(C)C)C(=O)N[C@@H](CCCNC(=N)N)C(=O)N1)[C@@H](C)CC)C(=O)N[C@@H](CC(C)C)C(=O)N[C@@H](Cc1ccccc1)C(N)=O (some centres unmarked) [SAH-BCL9B] (Ac-LSQEQLEHRERSL[ξαMeNle(6-ylidene)]TLR[ξαMeNle(6-ylidene)]IQR[Nle]LF-NH2; staple 14-18)
[1]; [5]
  metastatic tumor nodules in the liver: overall reduction of metastatic tumor nodules
  tumor burden (overall tissue fluorescence, whole body imaging): markedly reduced
[1]; 20 mg/kg i.p., 6 doses
  capillary CD34 immunoreactivity: less intense capillary CD34 immunoreactivity
  number of intratumoral blood vessels: reduction in the number of intratumoral blood vessels
  tumor cell CD44 immunoreactivity: decreased tumor cell CD44 immunoreactivity
[1]; NOD/SCID mice bearing intraperitoneal Colo320 cells
  TUNEL positivity in colonic tumor tissue: notably increased TUNEL positivity
[2]; DLD1
  VEGF-A expression: downregulated
[2]; DLD1, 10 μM, 12 hours
  Axin2 expression: among the most down-regulated genes
[2]; DLD1, 10 μM, 12 hours, adenoma and carcinoma signatures
  GSEA correlation of down-regulated genes with dominant-negative TCF1 and TCF4: strong and statistically significant correlation
[3]
  proliferation: reduced the proliferation
[4]
  proliferation: reduced the proliferation
